Structures can show the parent of a compound that is named as a salt.
Experiments:
[1] = biological target: IL-17A(FLAG-Tagged): IL-17RA(His-Tagged) (Homo sapiens, UniProt Q16552, K93Q); assay: IL-17A(FLAG-Tagged): IL-17RA(His-Tagged) Binding Disruption Eu-HTRF Assay; conditions: IL-17A/IL-17RA binding disruption, simple average if tested more than once
How it was run: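 IC50 comes from a one-site competition fit of the HTRF 665/620 nm ratio. Compound dilutions (2-fold, 22 points) were held 1 h rt with FLAG-tagged IL-17A dimer, then His-tagged IL-17RA plus Eu-cryptate anti-FLAG and D2 anti-His antibodies were added for 2 h rt.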

[2] = tested on: IL-17A-induced G-CSF production in human normal keratinocyte (NHK); assay: NHK Assay: IL-17A-induced G-CSF production in human normal keratinocytes; type: cell-based; conditions: 24 h, adult normal human keratinocytes, IL-17A 5 ng/mL, simple average if tested more than once
How it was run: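 Adult NHK, 3000-4000 cells/well; rhIL-17A + titrated cpd preincubated 1 h rt, then onto cells. Final: IL-17A 5 ng/mL, DMSO 0.2%, 5% FBS. 24 h, 37° C. G-CSF in supernatant by HTRF vs standard curve; IC50. Viability by CellTiter-Glo vs DMSO.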

Chain of UniProt Q16552 (Q16552 with tags, fused parts or gaps K93Q): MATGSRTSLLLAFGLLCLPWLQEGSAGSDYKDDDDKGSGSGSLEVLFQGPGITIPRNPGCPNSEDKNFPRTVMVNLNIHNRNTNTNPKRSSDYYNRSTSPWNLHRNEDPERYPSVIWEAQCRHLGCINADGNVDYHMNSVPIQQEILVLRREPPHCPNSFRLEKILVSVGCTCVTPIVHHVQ

Row | SMILES | IC50 [1] | IC50 ([2]; Homo sapiens, Keratinocyte) | IC50 [2]
1 | CC(C)c1cccc(C(=O)N[C@H](c2cn3ncc([C@H](NC(=O)CCC(F)(F)F)C4CC4)cc3n2)C2CCC(F)(F)CC2)n1 [Example 205, N—((S)-(7-((R)-Cyclopropyl(4,4,4-trifluorobutanamido)methyl)imidazo[1,2-b]pyridazin-2-yl)(4,4-difluorocyclohexyl)methyl)-6-isopropylpicolinamide] | 390 nM | 3700 nM | –
2 | Cc1nonc1C(=O)N[C@H](c1cn2ncc(C(C)NC(=O)CCC(F)(F)F)cc2n1)C1CCC(F)(F)CC1 (single isomer, unassigned) [Example 505, N—((S)-(4,4-Difluorocyclohexyl)(7-((R*)-1-(4,4,4-trifluorobutanamido)ethyl)imidazo[1,2-b]pyridazin-2-yl)methyl)-4-methyl-1,2,5-oxadiazole-3-carboxamide] | 5400 nM | – | > 20000 nM
3 | CC(C)n1nccc1C(=O)N[C@H](c1cn2ncc(C(CC#N)NC(=O)CC3CC(F)(F)C3)cc2n1)C1CCC(F)(F)CC1 (single isomer, unassigned) [Example 399, N—((S)-(7-((S*)-2-Cyano-1-(2-(3,3-difluorocyclobutyl)acetamido)ethyl)imidazo[1,2-b]pyridazin-2-yl)(4,4-difluorocyclohexyl)methyl)-1-isopropyl-1H-pyrazole-5-carboxamide] | 310 nM | – | 94 nM
4 | CC(F)(F)Cn1ncnc1C(=O)N[C@H](c1cn2ncc([C@H](NC(=O)CCC(F)(F)F)C3CC3)cc2n1)C1CCC(F)(F)CC1 [Example 477, N—((S)-(7-((R)-Cyclopropyl(4,4,4-trifluorobutanamido)methyl)imidazo[1,2-b]pyridazin-2-yl)(4,4-difluorocyclohexyl)methyl)-1-(2,2-difluoropropyl)-1H-1,2,4-triazole-5-carboxamide] | 290 nM | 1400 nM | –
5 | Cc1nonc1C(=O)N[C@H](c1cn2ncc([C@H](NC(=O)[C@H](F)[C@@H](C)C(F)(F)F)C3CC3)cc2n1)C1CCC(F)(F)CC1 (relative stereo) [Example 352, N—((S)-(7-((R)-Cyclopropyl((2R*,3R*)-2,4,4,4-tetrafluoro-3-methylbutanamido)methyl)imidazo[1,2-b]pyridazin-2-yl)(4,4-difluorocyclohexyl)methyl)-4-methyl-1,2,5-oxadiazole-3-carboxamide] | 120 nM | 190 nM | –
6 | CC(C)Oc1nocc1C(=O)N[C@H](c1cn2ncc([C@H](NC(=O)CCC(F)(F)F)C3CC3)cc2n1)C1CCC(F)(F)CC1 [Example 284, N—((S)-(7-((R)-Cyclopropyl(4,4,4-trifluorobutanamido)methyl)imidazo[1,2-b]pyridazin-2-yl)(4,4-difluorocyclohexyl)methyl)-3-isopropoxyisoxazole-4-carboxamide] | 220 nM | 920 nM | –
7 | Cc1ccnc(C(=O)N[C@H](c2cn3ncc([C@H](NC(=O)CCC(F)(F)F)C4CC4)cc3n2)C2CCC(F)(F)CC2)c1 [Example 206, N—((S)-(7-((R)-Cyclopropyl(4,4,4-trifluorobutanamido)methyl)imidazo[1,2-b]pyridazin-2-yl)(4,4-difluorocyclohexyl)methyl)-4-methylpicolinamide] | 540 nM | 4000 nM | –
8 | O=C(CCC(F)(F)F)N[C@@H](c1cnn2cc([C@@H](NC(=O)c3ccnc(OC4CC4)c3)C3CCC(F)(F)CC3)nc2c1)C1CC1 [Example 172, 2-Cyclopropoxy-N—((S)-(7-((R)-cyclopropyl(4,4,4-trifluorobutanamido)methyl)imidazo[1,2-b]pyridazin-2-yl)(4,4-difluorocyclohexyl)methyl)isonicotinamide] | 44 nM | 320 nM | –
9 | O=C(CCC(F)(F)F)N[C@@H](c1cnn2cc([C@@H](NC(=O)c3ccnn3C3CC3)C3CCC(F)(F)CC3)nc2c1)C1CC1 [Example 240, 1-Cyclopropyl-N—((S)-(7-((R)-cyclopropyl(4,4,4-trifluorobutanamido)methyl)imidazo[1,2-b]pyridazin-2-yl)(4,4-difluorocyclohexyl)methyl)-1H-pyrazole-5-carboxamide] | 130 nM | 210 nM | –
10 | O=C(CCC(F)(F)F)N[C@@H](c1cnn2cc([C@@H](NC(=O)c3cnn(CCOC(F)(F)F)c3)C3CCC(F)(F)CC3)nc2c1)C1CC1 [Example 36, N—((S)-(7-((R)-Cyclopropyl(4,4,4-trifluorobutanamido)methyl)imidazo[1,2-b]pyridazin-2-yl)(4,4-difluorocyclohexyl)methyl)-1-(2-(trifluoromethoxy)ethyl)-1H-pyrazole-4-carboxamide] | 140 nM | 120 nM | –
11 | Cc1nonc1C(=O)N[C@H](c1cn2ncc(C(C)NC(=O)CCC(F)(F)F)cc2n1)C1CCC(F)(F)CC1 (single isomer, unassigned) [Example 510, N—((S)-(4,4-Difluorocyclohexyl)(7-((S*)-1-(4,4,4-trifluorobutanamido)ethyl)imidazo[1,2-b]pyridazin-2-yl)methyl)-4-methyl-1,2,5-oxadiazole-3-carboxamide] | 83 nM | – | 440 nM
12 | O=C(CCC(F)(F)F)N[C@@H](c1cnn2cc([C@@H](NC(=O)c3cncc(C4CCC4)c3)C3CCC(F)(F)CC3)nc2c1)C1CC1 [Example 416, 5-Cyclobutyl-N—((S)-(7-((R)-cyclopropyl(4,4,4-trifluorobutanamido)methyl)imidazo[1,2-b]pyridazin-2-yl)(4,4-difluorocyclohexyl)methyl)nicotinamide] | 62 nM | 550 nM | –
13 | Cc1nonc1C(=O)N[C@@H](COC(C)(C)C)c1cn2ncc(C(NC(=O)CCC(F)(F)F)C3CC3)cc2n1 (single isomer, unassigned) [Example 314, N—((R)-2-(tert-Butoxy)-1-(7-((R*)-cyclopropyl(4,4,4-trifluorobutanamido)methyl)imidazo[1,2-b]pyridazin-2-yl)ethyl)-4-methyl-1,2,5-oxadiazole-3-carboxamide] | 560 nM | – | 2100 nM
14 | CCn1ncc(C(=O)N[C@H](c2cn3ncc([C@H](NC(=O)CCC(F)(F)F)C4CC4)cc3n2)C2CCC(F)(F)CC2)n1 [Example 59, N—((S)-(7-((R)-Cyclopropyl(4,4,4-trifluorobutanamido)methyl)imidazo[1,2-b]pyridazin-2-yl)(4,4-difluorocyclohexyl)methyl)-2-ethyl-2H-1,2,3-triazole-4-carboxamide] | 420 nM | 3600 nM | –
15 | O=C(N[C@H](c1cn2ncc(CNC(=O)[C@@H]3NCCC[C@H]3C(F)(F)F)cc2n1)C1CCCCC1)c1ccccc1 (relative stereo) [Example 1, (Trans-2R*,3R*)—N-((2-((S)-benzamido(cyclohexyl)methyl)imidazo[1,2-b]pyridazin-7-yl)methyl)-3-(trifluoromethyl)piperidine-2-carboxamide hydrochloride] | 180 nM | 300 nM | –
16 | N#CC1([C@@H](NC(=O)CC2CC(F)(F)C2)c2cnn3cc([C@@H](NC(=O)c4nonc4C4CC4)C4CCC(F)(F)CC4)nc3c2)CCC1 [Example 487, N—((S)-(7-((S)-(1-Cyanocyclobutyl)(2-(3,3-difluorocyclobutyl)acetamido)methyl)imidazo[1,2-b]pyridazin-2-yl)(4,4-difluorocyclohexyl)methyl)-4-cyclopropyl-1,2,5-oxadiazole-3-carboxamide] | 45 nM | 6 nM | –
17 | Cc1nonc1C(=O)N[C@H](c1cn2ncc([C@H](NC(=O)CO[C@@H](C)C(F)(F)F)C3CC3)cc2n1)C1CCC(F)(F)CC1 [Example 333, N—((S)-(7-((R)-Cyclopropyl(2-(((S)-1,1,1-trifluoropropan-2-yl)oxy)acetamido)methyl)imidazo[1,2-b]pyridazin-2-yl)(4,4-difluorocyclohexyl)methyl)-4-methyl-1,2,5-oxadiazole-3-carboxamide] | 180 nM | 620 nM | –
18 | COc1cc(C(=O)N[C@H](c2cn3ncc([C@H](NC(=O)CCC(F)(F)F)C4CC4)cc3n2)C2CCC(F)(F)CC2)cnn1 [Example 459, N—((S)-(7-((R)-Cyclopropyl(4,4,4-trifluorobutanamido)methyl)imidazo[1,2-b]pyridazin-2-yl)(4,4-difluorocyclohexyl)methyl)-6-methoxypyridazine-4-carboxamide] | 1300 nM | > 20000 nM | –
19 | N#CC12CC(Cn3ncc(C(=O)N[C@H](c4cn5ncc([C@H](NC(=O)CCC(F)(F)F)C6CC6)cc5n4)C4CCC(F)(F)CC4)n3)(C1)C2 [Example 146, 2-((3-Cyanobicyclo[1.1.1]pentan-1-yl)methyl)-N—((S)-(7-((R)-cyclopropyl(4,4,4-trifluorobutanamido)methyl)imidazo[1,2-b]pyridazin-2-yl)(4,4-difluorocyclohexyl)methyl)-2H-1,2,3-triazole-4-carboxamide] | 680 nM | 710 nM | –
20 | O=C(CCC(F)(F)F)N[C@@H](c1cnn2cc([C@@H](NC(=O)c3cnccn3)C3CCC(F)(F)CC3)nc2c1)C1CC1 [Example 223, N—((S)-(7-((R)-Cyclopropyl(4,4,4-trifluorobutanamido)methyl)imidazo[1,2-b]pyridazin-2-yl)(4,4-difluorocyclohexyl)methyl)pyrazine-2-carboxamide] | 2900 nM | > 20000 nM | –
21 | CC(CC(=O)N[C@@H](c1cnn2cc([C@@H](NC(=O)c3ccnn3C(C)C)C3CCC(F)(F)CC3)nc2c1)C1CC1)C(F)F (stereo partly drawn) [Example 262, N-((1S)-(7-((1R)-Cyclopropyl(4,4-difluoro-3-methylbutanamido)methyl)imidazo[1,2-b]pyridazin-2-yl)(4,4-difluorocyclohexyl)methyl)-1-isopropyl-1H-pyrazole-5-carboxamide] | 120 nM | 120 nM | –

From patent US11702422B2, “Imidazopyridazines as modulators of IL-17” (Janssen Pharmaceutica NV, priority 2020, dated 2023)
